Measurements reported in PubChem BioAssay AID1259346.
The source made the active and inactive calls.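 How the source made its calls: active means IC50 below 1 nM; inactive means the rest.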

System: HCT116 TERT promoter luciferase reporter, 16 h
Experiment: modulation of TERT promoter-driven luciferase – HCT116 cells, human, dose response (AID 1259346)

| SMILES | IC50 |
| --- | --- |
| Cc1nc2cc(-c3ccccc3)nn2c(C)c1CCC(=O)O | 7 nM (inactive) |
| Cc1nc2cc(-c3cccc(Br)c3)nn2c(C)c1CCC(=O)O | 346 nM (inactive) |
| Cc1nc2cc(-c3ccc(Br)cc3)nn2c(C)c1CCC(=O)O | < 1 nM |
| COC(=O)CCc1c(C)nc2cc(-c3ccc(OC)cc3)nn2c1C | < 1 nM |
| Cc1nc2cc(-c3ccc(C#CCO)cc3)nn2c(C)c1CCC(=O)O | 3600 nM (inactive) |
